The results in this text go back to ChEMBL document CHEMBL4840321, “Limonoids with Diverse Oxidation Patterns of C-12 Indicating a Complete Ring C-seco Biogenetic Pathway from Munronia unifoliolata” (J Nat Prod, 2021).

Each structure is given as a SMILES string. Active and inactive are the calls of the source. The rule behind the calls is not given here.

Data set [1] relates to RAW264.7. The experiment in a line: Inhibition of NO production in LPS-stimulated mouse RAW264.7 cells. It counts as functional, cell-based.
Data set [2] in a line: Cytotoxicity against human MCF7-DOX cells measured after 48 hrs by MTT assay. The data set is classed as cell-based. Background: Formazan colour is commonly taken as a measure of viable cells.
Data set [3] can be described thus: Anti-MDR activity in human MCF7-DOX cells assessed as reversal of cell resistance to doxorubicin by measuring reversal fold at 10 uM measured after 48 hrs by MTT assay. The data set is classed as functional.
The nature of data set [4]: Anti-MDR activity in human MCF7-DOX cells assessed as reversal of cell resistance to doxorubicin by measuring reversal fold at 30 uM measured after 48 hrs by MTT assay. The data set is classed as functional.

Take `C/C=C(\C)C(=O)O[C@H]1C[C@@H](OC(C)=O)[C@@]2(C)CO[C@H]3[C@@H](O)[C@@]4(C)C5=C(C)[C@H](C6=CCOC6=O)C[C@@H]5O[C@@H](OC)C[C@@H]4[C@]1(C)[C@@H]32`: the inhibition entry in data set [1] is “inactive”. Besides, in data set [2], the Activity result was “Non-Toxic”.
On the same counts, the results for `C/C=C(\C)C(=O)O[C@H]1C[C@@H](OC(C)=O)[C@@]2(C(=O)OC)CO[C@H]3[C@H]4O[C@]5(C)[C@H]6C[C@H](O[C@@H]7OC=C[C@@]76O)[C@]5(O)[C@@]4(C)[C@H](C(=O)CO)[C@]1(C)[C@@H]32` are “inactive” and “Non-Toxic”.
On to `COc1ccc(CCN(C)CCCC(C#N)(c2ccc(OC)c(OC)c2)C(C)C)cc1OC` (stereo not drawn) [VERAPAMIL], for which, in data set [3], the “fold change (FC)” value was 9.2.
As to `C/C=C(\C)C(=O)O[C@H]1C[C@@H](OC(C)=O)[C@@]2(C)CO[C@H]3[C@@H](O)[C@@]4(C)C5=C(C)[C@H](c6ccoc6)C[C@@H]5O[C@H](OC)C[C@@H]4[C@]1(C)[C@@H]32`, the “fold change (FC)” value in data set [3] amounted to 3.4; in data set [4] it was 4.5. Moreover, in data set [1], the inhibition entry is “inactive”. Further, in data set [2], the Activity entry is recorded as “Non-Toxic”.
Consider `C/C=C(\C)C(=O)O[C@H]1C[C@@H](OC(C)=O)[C@@]2(C)CO[C@H]3[C@@H](O)[C@@]4(C)C5=CC[C@@H](c6ccoc6)[C@]5(C)OCC[C@@H]4[C@]1(C)[C@@H]32`, for which the inhibition entry in data set [1] is “inactive”. In addition, the Activity entry in data set [2] is on record as “Non-Toxic”.
On the same counts, the results for `C/C=C(\C)C(=O)O[C@H]1C[C@@H](OC(C)=O)[C@@]2(C)CO[C@H]3[C@H]4O[C@]5(C)[C@H]6C[C@H](O[C@@H]7OC=C[C@@]76O)[C@]5(O)[C@@]4(C)[C@H](C(=O)CO)[C@]1(C)[C@@H]32` are “inactive” and “Non-Toxic”.
The corresponding values for `CC(=O)OCC[C@H]1[C@]2(C)C3=C(C)[C@H](c4ccoc4)C[C@H]3O[C@@H]2[C@@H]2OC[C@]3(C)[C@H](OC(C)=O)C[C@H](OC(C)=O)[C@@]1(C)[C@@H]23` are “inactive” and “Non-Toxic”.
Consider `C/C=C(\C)C(=O)O[C@H]1C[C@@H](OC(C)=O)[C@@]2(C)CO[C@H]3[C@H]4O[C@]5(C)[C@H]6C[C@H](O[C@@H]7O[C@@H](OC)C[C@@]76O)[C@]5(O)[C@@]4(C)[C@H](C(=O)CO)[C@]1(C)[C@@H]32`, for which, in data set [1], the inhibition result is “inactive”. For the same compound, the Activity result in data set [2] was “Non-Toxic”.
For `C/C=C(\C)C(=O)O[C@H]1C[C@@H](OC(C)=O)[C@@]2(C)CO[C@H]3[C@@H](O)[C@@]4(C)C5=C(C)[C@H](C6=CCOC6=O)C[C@@H]5O[C@@H](OCC)C[C@@H]4[C@]1(C)[C@@H]32`, the inhibition result in data set [1] was “inactive”. Moreover, the Activity entry in data set [2] is “Non-Toxic”.
The corresponding values for `C/C=C(\C)C(=O)O[C@H]1C[C@@H](OC(C)=O)[C@@]2(C)CO[C@H]3[C@@H](O)[C@@]4(C)C5=C(C)[C@H](c6ccoc6)C[C@@H]5O[C@@H](OC)C[C@@H]4[C@]1(C)[C@@H]32` are “inactive” and “Non-Toxic”.
On the same counts, the results for `C/C=C(\C)C(=O)O[C@@H]1C[C@H](OC(C)=O)[C@]23CO[C@H](CO)[C@H]2[C@](C)([C@]24O[C@@]2(C)[C@H]2C[C@@H]4O[C@@H]4O[C@H](OC)C[C@@]42O)[C@H](O)[C@@H]2OC[C@@]1(C(=O)OC)[C@H]23` are “inactive” and “Non-Toxic”.
The corresponding values for `C/C=C(\C)C(=O)O[C@H]1C[C@@H](OC(C)=O)[C@@]2(C)CO[C@H]3[C@@H](O)[C@@]4(C)C5=C(C)[C@H](c6ccoc6)C[C@@H]5O[C@@H](O)C[C@@H]4[C@]1(C)[C@@H]32` are “inactive” and “Non-Toxic”.
As to `CC(=O)O[C@H]1C[C@@H](OC(C)=O)[C@@]2(C)CO[C@H]3[C@@H](O)[C@@]4(C)C5=CC[C@@H](c6ccoc6)[C@]5(C)OCC[C@@H]4[C@]1(C)[C@@H]32`, the inhibition entry in data set [1] is “inactive”. Also, the Activity entry in data set [2] is “Non-Toxic”.
The corresponding values for `C/C=C(\C)C(=O)O[C@H]1C[C@@H](OC(C)=O)[C@@]2(C)CO[C@H]3[C@@H](O)[C@@]4(C)C5=C(C)[C@H](c6ccoc6)C[C@@H]5O[C@@H](OCC)C[C@@H]4[C@]1(C)[C@@H]32` are “inactive” and “Non-Toxic”.
The corresponding values for `CC(=O)O[C@H]1C[C@@H](OC(C)=O)[C@@]2(C)CO[C@H]3[C@@H](O)[C@@]4(C)C5=C(C)[C@H](c6ccoc6)C[C@@H]5OCC[C@@H]4[C@]1(C)[C@@H]32` are “inactive” and “Non-Toxic”.
For the compound `CC(=O)O[C@H]1C[C@@H](OC(C)=O)[C@@]2(C)CO[C@H]3[C@@H](O)[C@@]4(C)C5=CC[C@@H](c6ccoc6)[C@]5(C)CC[C@@H]4[C@]1(C)[C@@H]32` [DIACETYLVILASININ], the “fold change (FC)” value came out at 7.8 in data set [3] and 18.3 in data set [4]. The inhibition entry in data set [1] is “inactive”. In addition, the Activity result in data set [2] is given as “Non-Toxic”.
On to `C/C=C(\C)C(=O)O[C@H]1C[C@@H](OC(C)=O)[C@@]2(C)CO[C@H]3[C@@H](O)[C@@](C)(C4=C(C)[C@H](c5ccoc5)CC4=O)[C@H](C(=O)CO)[C@]1(C)[C@@H]32`, for which the inhibition entry in data set [1] is “inactive”. The Activity result in data set [2] is recorded as “Non-Toxic”.
The corresponding values for `C/C=C(\C)C(=O)O[C@@H]1C[C@H](OC(C)=O)[C@]23CO[C@H](CO)[C@H]2[C@](C)([C@]24O[C@@]2(C)[C@H]2C[C@@H]4O[C@@H]4O[C@H](OCC)C[C@@]42O)[C@H](O)[C@@H]2OC[C@@]1(C(=O)OC)[C@H]23` are “inactive” and “Non-Toxic”.
Turning to `C/C=C(\C)C(=O)O[C@@H]1C[C@H](OC(C)=O)[C@]23CO[C@H](CO)[C@H]2[C@](C)([C@]24O[C@@]2(C)[C@H]2C[C@@H]4O[C@@H]4O[C@H](OC)C[C@]42O)[C@H](O)[C@@H]2OC[C@@]1(C(=O)OC)[C@H]23`, the inhibition result in data set [1] was “inactive”. Moreover, the Activity entry in data set [2] is on record as “Non-Toxic”.
On to `C/C=C(\C)C(=O)O[C@H]1C[C@@H](OC(C)=O)[C@@]2(C)CO[C@H]3[C@@H](O)[C@@]4(C)C5=C(C)[C@H](c6ccoc6)C[C@@H]5OCC[C@@H]4[C@]1(C)[C@@H]32`, for which the “fold change (FC)” value is on record as 2.7 in data set [3] and 5.2 in data set [4]. In addition, in data set [1], the inhibition result is “inactive”. Further, in data set [2], the Activity entry is “Non-Toxic”.
In the case of `C/C=C(\C)C(=O)O[C@H]1C[C@@H](OC(C)=O)[C@@]2(C)CO[C@H]3[C@@H](O)[C@@]4(C)C5=C(C)[C@H](C6=CCOC6=O)C[C@@H]5OCC[C@@H]4[C@]1(C)[C@@H]32`, the inhibition result in data set [1] is “inactive”. Besides, the Activity result in data set [2] was “Non-Toxic”.
The corresponding values for `CC(=O)O[C@@H]1C[C@H](OC(=O)c2ccccc2)[C@@]2(C)[C@H]3[C@@H](OC[C@]13C)[C@@H](O)[C@@]1(C)C3=C(C)[C@H](c4ccoc4)C[C@@H]3OCC[C@@H]12` are “inactive” and “Non-Toxic”.
`CO[C@H]1C[C@H]2[C@](C)(C3=C(C)[C@H](c4ccoc4)C[C@@H]3O1)[C@H](O)[C@@H]1OC[C@]3(C)[C@H](OC(C)=O)C[C@H](OC(=O)c4ccccc4)[C@@]2(C)[C@@H]13`: in data set [1], the inhibition result is “inactive”. Further, the Activity entry in data set [2] is “Non-Toxic”.
The corresponding values for `C/C=C(\C)C(=O)O[C@H]1C[C@@H](OC(C)=O)[C@@]2(C)CO[C@H]3[C@@H](O)[C@]4(C)[C@H](C[C@@H]5O[C@H]6CC(c7ccoc7)=C(C)[C@@]64O5)[C@]1(C)[C@@H]32` are “inactive” and “Non-Toxic”.
